Reference: patent US10227331B2 (priority 2015, dated 2019)

Key:
NDM-1 = NDM-1 (Klebsiella pneumoniae, UniProt C7C422); experiment: biochemical; type: biochemical; settings: CCF2-FA substrate, 2 hours at 25° C; read-out: NDM-1 IC50
Procedure, shortened: (§1)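 Two-hour, 25° C incubation of enzyme with inhibitor and CCF2-FA (7-hydroxycoumarin–cephalosporin–fluorescein). Fluorescence read-out; IC50 via 4-parameter fit.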

IMP-1 = IMP-1 (Serratia marcescens, UniProt P52699); experiment: biochemical; type: biochemical; settings: CCF2-FA substrate, 2 hours at 25° C; read-out: IMP-1 IC50
IMP-1, sequence (P52699 whole entry, looked up, species assumed): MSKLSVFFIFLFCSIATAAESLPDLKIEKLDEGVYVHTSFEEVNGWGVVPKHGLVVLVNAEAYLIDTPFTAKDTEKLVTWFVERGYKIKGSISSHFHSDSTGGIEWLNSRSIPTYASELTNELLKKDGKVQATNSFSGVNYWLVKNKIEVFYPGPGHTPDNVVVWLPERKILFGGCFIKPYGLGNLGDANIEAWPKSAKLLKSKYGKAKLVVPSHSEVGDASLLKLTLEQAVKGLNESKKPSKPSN
Procedure, shortened: as §1

VIM-1 = VIM-1 (Pseudomonas aeruginosa (strain ATCC 15692 / DSM 22644 / CIP 104116 / JCM 14847 / LMG 12228 / 1C / PRS 101 / PAO1), UniProt A0A0F7KYQ8); experiment: biochemical; settings: CCF2-FA substrate, 2 hours at 25° C
Procedure, shortened: as §1

[1] = tested on: Serratia marcescens expressing IMP-1 (CL5741); type: cell-based; settings: IMP-1 (CL5741), with imipenem 1 μg/ml, 95% inhibition of bacterial growth
Procedure, shortened: (§2)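 Colonies from overnight 35 °C blood-agar cultures were suspended in saline, diluted 1:100 into 1.1× CAMHB and exposed to test compound with or without imipenem at 1 μg/ml. After 22–24 h at 35 °C, absorbance was read to find the concentration restoring imipenem susceptibility.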

[2] = tested on: Klebsiella pneumoniae expressing VIM-1 (IHMA599644); type: cell-based; settings: VIM-1 (IHMA599644), with imipenem 1 μg/ml, 95% inhibition of bacterial growth
Procedure, shortened: as §2

[3] = tested on: Escherichia coli expressing NDM-1 (CLB30005, CLB30016); type: cell-based; settings: NDM-1 (CLB30016), with imipenem 1 μg/ml, 95% inhibition of bacterial growth
Procedure, shortened: as §2

[4] = tested on: P. aeruginosa expressing IMP-1, efflux+ (MB9798); type: cell-based, Pseudomonas aeruginosa; settings: for P. aeruginosa expressing IMP-1, efflux+ (MB9798) MITC95: imipenem at 2 μg/mL, in the presence of a class A, C, D serine β-lactamase inhibitor closely related to relebactam; for Efflux ratio: ratio MITC95 PA_9798/MITC95 PA_9799
Excerpt: (§3) The strain background is Pseudomonas aeruginosa PAO1.

[5] = tested on: P. aeruginosa expressing IMP-1, efflux− (MB9799); experiment: Efflux: concentration of MBL inhibitor which restores susceptibility to imipenem; type: cell-based, Pseudomonas aeruginosa; settings: imipenem at 2 μg/mL, in the presence of a class A, C, D serine β-lactamase inhibitor closely related to relebactam
Excerpt: as §3

NDM-1, sequence (C7C422 whole entry, looked up, species assumed): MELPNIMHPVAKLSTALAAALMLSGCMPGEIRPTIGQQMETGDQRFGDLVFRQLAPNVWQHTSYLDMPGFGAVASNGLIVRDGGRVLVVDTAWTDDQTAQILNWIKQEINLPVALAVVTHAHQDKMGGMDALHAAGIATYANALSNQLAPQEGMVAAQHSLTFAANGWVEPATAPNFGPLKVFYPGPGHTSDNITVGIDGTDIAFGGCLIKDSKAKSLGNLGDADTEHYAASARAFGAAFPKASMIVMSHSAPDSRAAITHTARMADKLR

With `Nc1nc2c(-c3ccc(S(=O)(=O)[C@H]4CN[C@H](CO)C4)c(S(N)(=O)=O)c3-c3nn[nH]n3)cccc2[nH]1` [Example 291, 3-(2-amino-1H-benzo[d]imidazol-4-yl)-6-((3R,5S)-5-(hydroxymethyl)pyrrolidin-3-ylsulfonyl)-2-(2H-tetrazol-5-yl)benzenesulfonamide] the IC50 (NDM-1) was 0.195 nM, the IC50 (IMP-1) was 0.959 nM and the IC50 (VIM-1) was 0.54 nM. For the same compound, the “Serratia marcescens MITC95” value [1] was 0.7813 µM, the “Klebsiella pneumoniae MITC95” value [2] was 1.563 µM and the “Escherichia coli MITC95” value [3] was 0.7813 µM. For the same compound, the “P. aeruginosa expressing IMP-1, efflux+ (MB9798) MITC95” value [4] was 0.7813 µM, the Efflux ratio [4] was 1.00 and the “P. aeruginosa expressing IMP-1, efflux− (MB9799) MITC95” value [5] was 0.7813 µM.

Compound `Nc1nc2c(-c3ccc(S(=O)(=O)[C@H]4CN[C@H](CO)C4)c(S(N)(=O)=O)c3-c3nn[nH]n3)cccc2s1` [Example 292, 3-(2-aminobenzo[d]thiazol-4-yl)-6-((3R,5S)-5-(hydroxymethyl)pyrrolidin-3-ylsulfonyl)-2-(2H-tetrazol-5-yl)benzenesulfonamide] has an IC50 (NDM-1) of 0.161 nM, an IC50 (IMP-1) of 0.27 nM and an IC50 (VIM-1) of 0.332 nM. The “Serratia marcescens MITC95” value [1] was 1.563 µM, the “Klebsiella pneumoniae MITC95” value [2] was 3.125 µM and the “Escherichia coli MITC95” value [3] was 3.125 µM. For the same compound, the “P. aeruginosa expressing IMP-1, efflux+ (MB9798) MITC95” value [4] was 1.563 µM, the Efflux ratio [4] was 1.00 and the “P. aeruginosa expressing IMP-1, efflux− (MB9799) MITC95” value [5] was 1.563 µM.

`NC[C@H](N)CS(=O)(=O)c1ccc(-c2cccc3[nH]c(N)nc23)c(-c2nnn[nH]2)c1S(N)(=O)=O` [Example 293, 3-(2-amino-1H-benzo[d]imidazol-4-yl)-6-((S)-2,3-diaminopropylsulfonyl)-2-(1H-tetrazol-5-yl)benzenesulfonamide] gave an IC50 (NDM-1) of 0.157 nM, an IC50 (IMP-1) of 1.31 nM and an IC50 (VIM-1) of 0.465 nM. For the same compound, the “Serratia marcescens MITC95” value [1] was 1.563 µM, the “Klebsiella pneumoniae MITC95” value [2] was 1.563 µM and the “Escherichia coli MITC95” value [3] was 0.3906 µM. The “P. aeruginosa expressing IMP-1, efflux+ (MB9798) MITC95” value [4] was 0.7813 µM, the Efflux ratio [4] was 1.00 and the “P. aeruginosa expressing IMP-1, efflux− (MB9799) MITC95” value [5] was 0.7813 µM.

For `C[C@H](N)CS(=O)(=O)c1ccc(-c2cccc3[nH]c(C(=O)O)nc23)c(-c2nn[nH]n2)c1S(N)(=O)=O` [Example 294, 4-(4-((S)-2-aminopropylsulfonyl)-3-sulfamoyl-2-(2H-tetrazol-5-yl)phenyl)-1H-benzo[d]imidazole-2-carboxylic Acid], the IC50 (NDM-1) was 0.0827 nM, the IC50 (IMP-1) was 0.35 nM and the IC50 (VIM-1) was 0.184 nM. For the same compound, the “Serratia marcescens MITC95” value [1] was 3.125 µM, the “Klebsiella pneumoniae MITC95” value [2] was 3.125 µM and the “Escherichia coli MITC95” value [3] was 1.563 µM. The “P. aeruginosa expressing IMP-1, efflux+ (MB9798) MITC95” value [4] was 1.563 µM, the Efflux ratio [4] was 1.00 and the “P. aeruginosa expressing IMP-1, efflux− (MB9799) MITC95” value [5] was 1.563 µM.

`N#Cc1ccc(-c2ccc(S(=O)(=O)CCN)c(S(N)(=O)=O)c2-c2nnn[nH]2)c2[nH]c(N)nc12` [Example 295, 3-(2-amino-4-cyano-1H-benzo[d]imidazol-7-yl)-6-((2-aminoethyl)sulfonyl)-2-(1H-tetrazol-5-yl)benzenesulfonamide] showed an IC50 (NDM-1) of 0.116 nM, an IC50 (IMP-1) of 1.22 nM and an IC50 (VIM-1) of 0.105 nM. For the same compound, the “Serratia marcescens MITC95” value [1] was 3.125 µM, the “Klebsiella pneumoniae MITC95” value [2] was 3.125 µM and the “Escherichia coli MITC95” value [3] was 1.563 µM. The “P. aeruginosa expressing IMP-1, efflux+ (MB9798) MITC95” value [4] was 1.563 µM, the Efflux ratio [4] was 1.00 and the “P. aeruginosa expressing IMP-1, efflux− (MB9799) MITC95” value [5] was 1.563 µM.

In the case of `NS(=O)(=O)c1c(S(=O)(=O)C2CNC2)ccc(-c2cccc3cn[nH]c23)c1-c1nnn[nH]1` [Example 297, 6-(azetidin-3-ylsulfonyl)-3-(1H-indazol-7-yl)-2-(1H-tetrazol-5-yl)benzenesulfonamide], the IC50 (NDM-1) is reported as 0.217 nM, the IC50 (IMP-1) is reported as 0.596 nM and the IC50 (VIM-1) is reported as 0.282 nM. The “Serratia marcescens MITC95” value [1] was 1.563 µM, the “Klebsiella pneumoniae MITC95” value [2] was 3.125 µM and the “Escherichia coli MITC95” value [3] was 1.563 µM. The “P. aeruginosa expressing IMP-1, efflux+ (MB9798) MITC95” value [4] was 1.563 µM, the Efflux ratio [4] was 2.00 and the “P. aeruginosa expressing IMP-1, efflux− (MB9799) MITC95” value [5] was 0.7813 µM.

In the case of `NCCS(=O)(=O)c1ccc(-c2cccc3cn[nH]c23)c(-c2nnn[nH]2)c1S(N)(=O)=O` [Example 298, 6-((2-aminoethyl)sulfonyl)-3-(1H-indazol-7-yl)-2-(1H-tetrazol-5-yl) benzenesulfonamide], the IC50 (NDM-1) is reported as 0.425 nM, the IC50 (IMP-1) is reported as 0.3 nM and the IC50 (VIM-1) is reported as 0.257 nM. The “Serratia marcescens MITC95” value [1] was 1.563 µM, the “Klebsiella pneumoniae MITC95” value [2] was 1.563 µM and the “Escherichia coli MITC95” value [3] was 0.7813 µM. The “P. aeruginosa expressing IMP-1, efflux+ (MB9798) MITC95” value [4] was 1.563 µM, the Efflux ratio [4] was 2.00 and the “P. aeruginosa expressing IMP-1, efflux− (MB9799) MITC95” value [5] was 0.7813 µM.

`NS(=O)(=O)c1c(S(=O)(=O)C2CNC2)ccc(-c2cccc3[nH]c(=O)[nH]c23)c1-c1nnn[nH]1` [Example 299, 6-(azetidin-3-ylsulfonyl)-3-(2-oxo-2,3-dihydro-1H-benzo[d]imidazol-4-yl)-2-(1H-tetrazol-5-yl) benzenesulfonamide] gave an IC50 (NDM-1) of 0.188 nM, an IC50 (IMP-1) of 1.45 nM and an IC50 (VIM-1) of 0.302 nM. The “Serratia marcescens MITC95” value [1] was 3.125 µM, the “Klebsiella pneumoniae MITC95” value [2] was 6.25 µM and the “Escherichia coli MITC95” value [3] was 3.125 µM. The “P. aeruginosa expressing IMP-1, efflux+ (MB9798) MITC95” value [4] was 3.125 µM, the Efflux ratio [4] was 1.00 and the “P. aeruginosa expressing IMP-1, efflux− (MB9799) MITC95” value [5] was 3.125 µM.

`NCCS(=O)(=O)c1ccc(-c2cccc3[nH]c(=O)[nH]c23)c(-c2nnn[nH]2)c1S(N)(=O)=O` [Example 300, 6-((2-aminoethyl)sulfonyl)-3-(2-oxo-2,3-dihydro-1H-benzo[d]imidazol-4-yl)-2-(1H-tetrazol-5-yl) benzenesulfonamide] showed an IC50 (NDM-1) of 0.254 nM, an IC50 (IMP-1) of 0.415 nM and an IC50 (VIM-1) of 0.162 nM. For the same compound, the “Serratia marcescens MITC95” value [1] was 1.563 µM, the “Klebsiella pneumoniae MITC95” value [2] was 3.125 µM and the “Escherichia coli MITC95” value [3] was 0.7813 µM. The “P. aeruginosa expressing IMP-1, efflux+ (MB9798) MITC95” value [4] was 1.563 µM, the Efflux ratio [4] was 2.00 and the “P. aeruginosa expressing IMP-1, efflux− (MB9799) MITC95” value [5] was 0.7813 µM.

In the case of `NS(=O)(=O)c1c(S(=O)(=O)C2CNC2)ccc(-c2cncc3[nH]c(=O)[nH]c23)c1-c1nnn[nH]1` [Example 301, 6-(azetidin-3-ylsulfonyl)-3-(2-oxo-2,3-dihydro-1H-imidazo[4,5-c]pyridin-7-yl)-2-(1H-tetrazol-5-yl)benzenesulfonamide], the IC50 (NDM-1) is reported as 0.536 nM, the IC50 (IMP-1) is reported as 2.87 nM and the IC50 (VIM-1) is reported as 0.96 nM. The “Serratia marcescens MITC95” value [1] was 3.125 µM, the “Klebsiella pneumoniae MITC95” value [2] was 6.25 µM and the “Escherichia coli MITC95” value [3] was 0.7813 µM. For the same compound, the “P. aeruginosa expressing IMP-1, efflux+ (MB9798) MITC95” value [4] was 3.125 µM, the Efflux ratio [4] was 2.00 and the “P. aeruginosa expressing IMP-1, efflux− (MB9799) MITC95” value [5] was 1.563 µM.

`NCCS(=O)(=O)c1ccc(-c2cccc3nc(C(=O)O)nn23)c(-c2nnn[nH]2)c1S(N)(=O)=O` [Example 304, 5-(4-((2-aminoethyl)sulfonyl)-3-sulfamoyl-2-(1H-tetrazol-5-yl)phenyl)-[1,2,4]triazolo [1,5-a]pyridine-2-carb oxylic Acid] was tested, and the IC50 (NDM-1) was 0.214 nM, the IC50 (IMP-1) was 5.36 nM and the IC50 (VIM-1) was 0.478 nM. The “Serratia marcescens MITC95” value [1] was 6.25 µM, the “Klebsiella pneumoniae MITC95” value [2] was 50 µM and the “Escherichia coli MITC95” value [3] was 6.25 µM. For the same compound, the “P. aeruginosa expressing IMP-1, efflux+ (MB9798) MITC95” value [4] was 25 µM, the Efflux ratio [4] was 2.00 and the “P. aeruginosa expressing IMP-1, efflux− (MB9799) MITC95” value [5] was 12.5 µM.

Compound `NCCS(=O)(=O)c1ccc(-c2cccc3[nH]c(CN)nc23)c(-c2nn[nH]n2)c1S(N)(=O)=O` [Example 305, 6-((2-aminoethyl)sulfonyl)-3-(2-(aminomethyl)-1H-benzo[d]imidazol-4-yl)-2-(2H-tetrazol-5-yl)benzenesulfonamide] has an IC50 (NDM-1) of 0.643 nM, an IC50 (IMP-1) of 1.91 nM and an IC50 (VIM-1) of 0.493 nM. For the same compound, the “Serratia marcescens MITC95” value [1] was 0.7813 µM, the “Klebsiella pneumoniae MITC95” value [2] was 1.563 µM and the “Escherichia coli MITC95” value [3] was 1.563 µM. For the same compound, the “P. aeruginosa expressing IMP-1, efflux+ (MB9798) MITC95” value [4] was 1.563 µM, the Efflux ratio [4] was 2.00 and the “P. aeruginosa expressing IMP-1, efflux− (MB9799) MITC95” value [5] was 0.7813 µM.

`NCCc1nc2c(-c3ccc(S(=O)(=O)CCN)c(S(N)(=O)=O)c3-c3nn[nH]n3)cccc2[nH]1` [Example 306, 3-(2-(2-aminoethyl)-1H-benzo[d]imidazol-4-yl)-6-((2-aminoethyl)sulfonyl)-2-(2H-tetrazol-5-yl) benzenesulfonamide] gave an IC50 (NDM-1) of 0.848 nM, an IC50 (IMP-1) of 2.84 nM and an IC50 (VIM-1) of 0.374 nM. The “Serratia marcescens MITC95” value [1] was 0.7813 µM, the “Klebsiella pneumoniae MITC95” value [2] was 1.563 µM and the “Escherichia coli MITC95” value [3] was 0.7813 µM. The “P. aeruginosa expressing IMP-1, efflux+ (MB9798) MITC95” value [4] was 1.563 µM, the Efflux ratio [4] was 2.00 and the “P. aeruginosa expressing IMP-1, efflux− (MB9799) MITC95” value [5] was 0.7813 µM.
